Measurements as given in patent publication US7981903B2, “2-[2-{phenylamino}-1H-pyrrolo[2,3-D]pyrimidin-4-yl)amino] benzamide derivatives as IGF-1R inhibitors for the treatment of cancer” (GlaxoSmithKline LLC, priority 2007, dated 2011).

Columns and labels:
[1] = target: T1, NIH-3T3 cells overexpressing human IGF-1R (Homo sapiens, UniProt P08069); test: IGF-1R cellular autophosphorylation (DELFIA); type: cell-based
T1 construct: expressed in transfected cells; host or cells: NIH-3T3 (mouse fibroblasts)
In short: (§1)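 Receptor autophosphorylation measured by DELFIA, capturing IGF-1R or IRβ and detecting with europium anti-pTyr, reported as percent of IGF-1- or insulin-stimulated signal. Compounds (30 uM to 1.5 nM) added 2 h before ligand, then 15 min stimulation (IGF-1 30 ng/ml or insulin 3 ug/ml).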

[2] = target: T2, NIH-3T3 cells overexpressing human IR (Homo sapiens, UniProt P06213); test: IR cellular autophosphorylation (DELFIA); type: cell-based; settings: 2 h compound, insulin 3 ug/ml for 15 minutes, IC50 category
T2 construct: expressed in transfected cells; host or cells: NIH-3T3 (mouse fibroblasts)
In short: as §1

Colo205 = test: Inhibition of cell proliferation (CellTiter-Glo or InCell analyzer), Colo205; type: cell-based; settings: Homo sapiens, COLO 205, 72 h / 3 days, values given as IC50 category
In short: In one

human IR (hIR) = target: T3, human IR (hIR) (Homo sapiens, UniProt P06213); test: TR-FRET kinase assay of purified hIR; type: biochemical; settings: activated hIR 0.5 nM, 10 μM ATP, values given as pIC50 category
T3 construct: containing amino acid residues 979-1382 of human IR; made in house; host or cells: Sf9 cells (baculovirus), same process as hIGF1R
T3 sequence (P06213 979-1382): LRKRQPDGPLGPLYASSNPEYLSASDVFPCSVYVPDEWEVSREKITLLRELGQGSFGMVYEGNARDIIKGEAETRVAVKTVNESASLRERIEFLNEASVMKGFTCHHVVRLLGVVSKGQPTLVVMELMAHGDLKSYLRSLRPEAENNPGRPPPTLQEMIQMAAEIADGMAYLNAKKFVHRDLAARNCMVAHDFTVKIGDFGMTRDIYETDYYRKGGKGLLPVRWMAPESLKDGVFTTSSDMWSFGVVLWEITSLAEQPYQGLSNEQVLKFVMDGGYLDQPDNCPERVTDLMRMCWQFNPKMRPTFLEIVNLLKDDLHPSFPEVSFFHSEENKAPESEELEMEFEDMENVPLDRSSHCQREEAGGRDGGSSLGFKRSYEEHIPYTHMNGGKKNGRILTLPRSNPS

T1 sequence (P08069 31-1367): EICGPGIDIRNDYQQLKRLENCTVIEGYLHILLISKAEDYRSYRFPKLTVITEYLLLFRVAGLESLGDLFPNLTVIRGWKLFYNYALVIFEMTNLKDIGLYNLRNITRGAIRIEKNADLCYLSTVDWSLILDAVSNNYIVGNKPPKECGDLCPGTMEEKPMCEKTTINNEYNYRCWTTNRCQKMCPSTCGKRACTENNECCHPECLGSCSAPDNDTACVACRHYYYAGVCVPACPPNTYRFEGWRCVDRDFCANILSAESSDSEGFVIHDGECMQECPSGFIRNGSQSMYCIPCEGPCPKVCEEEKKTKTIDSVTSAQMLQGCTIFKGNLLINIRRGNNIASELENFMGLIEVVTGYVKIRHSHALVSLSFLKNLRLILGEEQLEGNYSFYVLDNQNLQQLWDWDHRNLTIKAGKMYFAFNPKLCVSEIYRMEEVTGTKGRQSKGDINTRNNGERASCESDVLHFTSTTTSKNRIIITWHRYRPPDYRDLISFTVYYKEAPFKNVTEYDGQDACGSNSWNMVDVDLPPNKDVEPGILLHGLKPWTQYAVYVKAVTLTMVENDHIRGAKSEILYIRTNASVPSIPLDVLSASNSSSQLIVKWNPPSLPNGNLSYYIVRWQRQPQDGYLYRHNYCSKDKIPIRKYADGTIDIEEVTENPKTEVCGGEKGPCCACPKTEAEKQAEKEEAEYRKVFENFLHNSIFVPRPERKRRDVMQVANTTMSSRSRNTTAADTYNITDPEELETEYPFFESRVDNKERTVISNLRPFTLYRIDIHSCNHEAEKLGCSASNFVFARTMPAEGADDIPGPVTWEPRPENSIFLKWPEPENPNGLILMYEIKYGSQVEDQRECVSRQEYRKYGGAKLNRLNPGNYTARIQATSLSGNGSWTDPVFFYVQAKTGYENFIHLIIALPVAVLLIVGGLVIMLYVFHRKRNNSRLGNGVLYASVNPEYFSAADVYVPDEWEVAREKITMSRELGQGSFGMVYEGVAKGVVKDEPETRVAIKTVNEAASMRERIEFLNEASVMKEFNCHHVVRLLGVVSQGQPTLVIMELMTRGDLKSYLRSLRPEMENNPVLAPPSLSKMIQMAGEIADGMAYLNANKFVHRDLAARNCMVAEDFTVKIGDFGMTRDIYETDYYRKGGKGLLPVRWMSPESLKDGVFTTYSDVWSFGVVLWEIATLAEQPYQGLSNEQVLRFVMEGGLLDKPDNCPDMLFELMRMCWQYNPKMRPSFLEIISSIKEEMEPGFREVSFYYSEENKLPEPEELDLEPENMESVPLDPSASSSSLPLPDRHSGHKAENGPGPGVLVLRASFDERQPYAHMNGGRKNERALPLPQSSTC
T2 sequence (P06213 28-1382): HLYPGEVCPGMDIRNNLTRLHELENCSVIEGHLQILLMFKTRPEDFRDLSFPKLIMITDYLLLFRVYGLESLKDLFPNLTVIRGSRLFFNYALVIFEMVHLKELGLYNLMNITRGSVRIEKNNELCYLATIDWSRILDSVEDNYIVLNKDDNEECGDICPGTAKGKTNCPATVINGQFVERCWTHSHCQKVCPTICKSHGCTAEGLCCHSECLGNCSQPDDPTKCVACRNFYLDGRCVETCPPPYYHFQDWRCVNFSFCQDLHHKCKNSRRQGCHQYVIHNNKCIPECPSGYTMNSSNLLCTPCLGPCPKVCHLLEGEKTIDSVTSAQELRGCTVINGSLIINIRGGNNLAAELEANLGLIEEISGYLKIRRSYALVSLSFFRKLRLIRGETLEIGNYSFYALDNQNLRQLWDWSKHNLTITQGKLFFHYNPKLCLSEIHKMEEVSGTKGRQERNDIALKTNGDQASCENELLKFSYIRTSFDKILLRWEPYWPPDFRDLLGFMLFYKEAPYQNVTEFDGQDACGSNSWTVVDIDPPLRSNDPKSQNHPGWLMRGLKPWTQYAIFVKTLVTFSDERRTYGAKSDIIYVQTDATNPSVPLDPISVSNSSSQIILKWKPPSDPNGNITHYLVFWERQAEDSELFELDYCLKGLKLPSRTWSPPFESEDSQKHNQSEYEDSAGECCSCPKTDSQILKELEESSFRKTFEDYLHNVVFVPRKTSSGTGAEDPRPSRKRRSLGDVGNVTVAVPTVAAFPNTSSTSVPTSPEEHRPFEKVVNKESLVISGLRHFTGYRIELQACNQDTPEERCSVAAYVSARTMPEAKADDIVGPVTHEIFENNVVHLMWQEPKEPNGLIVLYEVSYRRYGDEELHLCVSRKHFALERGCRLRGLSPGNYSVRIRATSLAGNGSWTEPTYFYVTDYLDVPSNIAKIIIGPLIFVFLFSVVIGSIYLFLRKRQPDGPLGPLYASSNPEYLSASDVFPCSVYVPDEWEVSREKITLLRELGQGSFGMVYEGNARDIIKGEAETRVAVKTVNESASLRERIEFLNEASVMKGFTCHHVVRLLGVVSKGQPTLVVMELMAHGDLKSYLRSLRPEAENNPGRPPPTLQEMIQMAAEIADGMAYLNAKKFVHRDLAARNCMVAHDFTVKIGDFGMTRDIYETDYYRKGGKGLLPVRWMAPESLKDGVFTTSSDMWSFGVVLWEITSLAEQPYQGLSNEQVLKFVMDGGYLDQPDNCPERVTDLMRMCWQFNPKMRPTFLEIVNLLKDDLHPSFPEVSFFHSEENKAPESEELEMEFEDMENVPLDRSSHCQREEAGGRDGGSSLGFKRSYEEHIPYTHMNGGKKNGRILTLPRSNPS

COc1cc2c(cc1Nc1nc(Nc3ccc(F)c(F)c3C(N)=O)c3cc[nH]c3n1)N(C(=O)CN(C)C)CCC2 [Example 162, 6-[(2-{[1-(N,N-dimethylglycyl)-6-(methyloxy)-1,2,3,4-tetrahydro-7-quinolinyl]amino}-1H-pyrrolo[2,3-d]pyrimidin-4-yl)amino]-2,3-difluorobenzamide]
IC50 [1]: < 100 nM | IC50 [2]: < 100 nM | IC50 (Colo205): < 250 nM | IC50 (human IR (hIR)): 0.251 to 1 nM

CNC(=O)c1c(F)cccc1Nc1nc(Nc2cc3c(cc2OC)CCN3C(=O)CN2CCCC2)nc2[nH]ccc12 [Example 139, 2-fluoro-N-methyl-6-[(2-{[5-(methyloxy)-1-(1-pyrrolidinylacetyl)-2,3-dihydro-1H-indol-6-yl]amino}-1H-pyrrolo[2,3-d]pyrimidin-4-yl)amino]benzamide]
IC50 [1]: < 100 nM | IC50 [2]: 100 to 500 nM | IC50 (Colo205): 250 to 1000 nM | IC50 (human IR (hIR)): 1.26 to 3.98 nM

CCCNC(=O)c1c(F)cccc1Nc1nc(Nc2cc3c(cc2OC)CCN3C(=O)CN(C)C)nc2[nH]ccc12 [Example 156, 2-[(2-{[1-(N,N-dimethylglycyl)-5-(methyloxy)-2,3-dihydro-1H-indol-6-yl]amino}-1H-pyrrolo[2,3-d]pyrimidin-4-yl)amino]-6-fluoro-N-propylbenzamide]
IC50 [1]: 100 to 500 nM | IC50 [2]: 100 to 500 nM | IC50 (Colo205): > 1000 nM | IC50 (human IR (hIR)): 1.26 to 3.98 nM

CNC(=O)c1c(F)cccc1Nc1nc(Nc2cc3c(cc2OC)CCN3C(=O)CN(C)C)nc2[nH]cc(F)c12 [Example 253, 2-[(2-{[1-(N,N-dimethylglycyl)-5-(methyloxy)-2,3-dihydro-1H-indol-6-yl]amino}-5-fluoro-1H-pyrrolo[2,3-d]pyrimidin-4-yl)amino]-6-fluoro-N-methylbenzamide]
IC50 [1]: 100 to 500 nM | IC50 [2]: 100 to 500 nM | IC50 (Colo205): 250 to 1000 nM | IC50 (human IR (hIR)): 1.26 to 3.98 nM

CNCC(=O)N1CCc2cc(OC)c(Nc3nc(Nc4cccc(F)c4C(N)=O)c4cc[nH]c4n3)cc21 [Example 142, 2-fluoro-6-[(2-{[1-(N-methylglycyl)-5-(methyloxy)-2,3-dihydro-1H-indol-6-yl]amino}-1H-pyrrolo[2,3-d]pyrimidin-4-yl)amino]benzamide]
IC50 [1]: < 100 nM | IC50 [2]: 100 to 500 nM | IC50 (Colo205): 250 to 1000 nM | IC50 (human IR (hIR)): 1.26 to 3.98 nM

CCN(CC)CC(=O)N1CCc2cc(OC)c(Nc3nc(Nc4cccc(F)c4C(N)=O)c4cc[nH]c4n3)cc21 [Example 136, 2-[(2-{[1-(N,N-diethylglycyl)-5-(methyloxy)-2,3-dihydro-1H-indol-6-yl]amino}-1H-pyrrolo[2,3-d]pyrimidin-4-yl)amino]-6-fluorobenzamide]
IC50 [1]: < 100 nM | IC50 [2]: < 100 nM | IC50 (Colo205): 250 to 1000 nM | IC50 (human IR (hIR)): 1.26 to 3.98 nM

COc1cc(N2CCOC[C@@H]2C)ccc1Nc1nc(Nc2cccc(F)c2C(N)=O)c2cc[nH]c2n1 [Example 49, 2-fluoro-6-[(2-{[4-[(3S)-3-methyl-4-morpholinyl]-2-(methyloxy)phenyl]amino}-1H-pyrrolo[2,3-d]pyrimidin-4-yl)amino]benzamide]
IC50 [1]: 100 to 500 nM | IC50 [2]: 100 to 500 nM | IC50 (Colo205): < 250 nM | IC50 (human IR (hIR)): 1.26 to 3.98 nM

COc1cc(N2CCN(C(C)C)CC2)c(OC)cc1Nc1nc(Nc2cc(F)ccc2C(N)=O)c2cc[nH]c2n1 [Example 82, 4-fluoro-2-[(2-{[4-[4-(1-methylethyl)-1-piperazinyl]-2,5-bis(methyloxy)phenyl]amino}-1H-pyrrolo[2,3-d]pyrimidin-4-yl)amino]benzamide]
IC50 [1]: < 100 nM | IC50 [2]: 100 to 500 nM | IC50 (Colo205): < 250 nM | IC50 (human IR (hIR)): 1.26 to 3.98 nM

CNC(=O)c1c(F)cccc1Nc1nc(Nc2cc3c(cc2OC)C(C)(C)CN3C(=O)CN(C)C)nc2[nH]ccc12 [Example 127, 2-[(2-{[1-(N,N-dimethylglycyl)-3,3-dimethyl-5-(methyloxy)-2,3-dihydro-1H-indol-6-yl]amino}-1H-pyrrolo[2,3-d]pyrimidin-4-yl)amino]-6-fluoro-N-methylbenzamide]
IC50 [1]: < 100 nM | IC50 [2]: < 100 nM | IC50 (Colo205): 250 to 1000 nM | IC50 (human IR (hIR)): 1.26 to 3.98 nM

COc1cc2c(cc1Nc1nc(Nc3cccc(F)c3C(N)=O)c3cc[nH]c3n1)CN(CCF)CC2 [Example 233, 2-fluoro-6-[(2-{[2-(2-fluoroethyl)-6-(methyloxy)-1,2,3,4-tetrahydro-7-isoquinolinyl]amino}-1H-pyrrolo[2,3-d]pyrimidin-4-yl)amino]benzamide]
IC50 [1]: 100 to 500 nM | IC50 [2]: < 100 nM | IC50 (Colo205): 250 to 1000 nM | IC50 (human IR (hIR)): 1.26 to 3.98 nM

COc1cc(N2CCN(C(C)C)CC2)ccc1Nc1nc(Nc2cc(Cl)cc(F)c2C(N)=O)c2cc[nH]c2n1 [Example 93, 4-chloro-2-fluoro-6-[(2-{[4-[4-(1-methylethyl)-1-piperazinyl]-2-(methyloxy)phenyl]amino}-1H-pyrrolo[2,3-d]pyrimidin-4-yl)amino]benzamide]
IC50 [1]: 100 to 500 nM | IC50 [2]: 100 to 500 nM | IC50 (Colo205): 250 to 1000 nM | IC50 (human IR (hIR)): 1.26 to 3.98 nM

CCCN1CCC(c2ccc(Nc3nc(Nc4cc(F)ccc4C(N)=O)c4cc[nH]c4n3)c(OC)c2)CC1 [Example 73, 4-fluoro-2-[(2-{[2-(methyloxy)-4-(1-propyl-4-piperidinyl)phenyl]amino}-1H-pyrrolo[2,3-d]pyrimidin-4-yl)amino]benzamide]
IC50 [1]: < 100 nM | IC50 [2]: < 100 nM | IC50 (Colo205): < 250 nM | IC50 (human IR (hIR)): 0.251 to 1 nM

COc1cc2c(cc1Nc1nc(Nc3cccc(F)c3C(N)=O)c3cc[nH]c3n1)CCN2C(=O)CN(C)C [Example 197, 2-[(2-{[1-(N,N-dimethylglycyl)-6-(methyloxy)-2,3-dihydro-1H-indol-5-yl]amino}-1H-pyrrolo[2,3-d]pyrimidin-4-yl)amino]-6-fluorobenzamide]
IC50 [1]: 100 to 500 nM | IC50 [2]: > 500 nM | IC50 (Colo205): < 250 nM | IC50 (human IR (hIR)): 0.251 to 1 nM

COc1cc2c(cc1Nc1nc(Nc3cccc(F)c3C(N)=O)c3cc[nH]c3n1)CN(C(=O)CN(C)C)CC2 [Example 123, 2-[(2-{[2-(N,N-dimethylglycyl)-6-(methyloxy)-1,2,3,4-tetrahydro-7-isoquinolinyl]amino}-1H-pyrrolo[2,3-d]pyrimidin-4-yl)amino]-6-fluorobenzamide]
IC50 [1]: 100 to 500 nM | IC50 [2]: 100 to 500 nM | IC50 (Colo205): 250 to 1000 nM | IC50 (human IR (hIR)): 1.26 to 3.98 nM

COc1cc(N2CCC(N3CCN(CCS(C)(=O)=O)CC3)CC2)ccc1Nc1nc(Nc2cccc(F)c2C(N)=O)c2cc[nH]c2n1 [Example 115, 2-fluoro-6-[(2-{[2-(methyloxy)-4-(4-{4-[2-(methylsulfonyl)ethyl]-1-piperazinyl}-1-piperidinyl)phenyl]amino}-1H-pyrrolo[2,3-d]pyrimidin-4-yl)amino]benzamide]
IC50 [1]: 100 to 500 nM | IC50 [2]: 100 to 500 nM | IC50 (Colo205): < 250 nM | IC50 (human IR (hIR)): 1.26 to 3.98 nM

COc1cc(N2CCN(C(C)C)CC2)ccc1Nc1nc(Nc2cc(F)cc(OC)c2C(N)=O)c2cc[nH]c2n1 [Example 88]
IC50 [1]: > 500 nM | IC50 [2]: > 500 nM | IC50 (Colo205): 250 to 1000 nM | IC50 (human IR (hIR)): 1.26 to 3.98 nM

COc1cc(N2CCOC[C@@H]2C)ccc1Nc1nc(Nc2ccc(F)cc2C(N)=O)c2cc[nH]c2n1 [Example 61, 5-fluoro-2-[(2-{[4-[(3S)-3-methyl-4-morpholinyl]-2-(methyloxy)phenyl]amino}-1H-pyrrolo[2,3-d]pyrimidin-4-yl)amino]benzamide]
IC50 [1]: < 100 nM | IC50 [2]: < 100 nM | IC50 (Colo205): < 250 nM | IC50 (human IR (hIR)): 0.251 to 1 nM
